The record followed here is PMC9867533, “A New Anticancer Semisynthetic Theobromine Derivative Targeting EGFR Protein: CADDD Study” (Life, 2023).

The assay addresses EGFR^WT (Homo sapiens, UniProt P00533). The assay can be described thus: in vitro EGFR kinase inhibition assay (human EGFR ELISA kit). The class given is biochemical. In general terms: In an ELISA, binding on a coated surface is turned into a signal by an enzyme label.

Chain of EGFR^WT (P00533 25-1210): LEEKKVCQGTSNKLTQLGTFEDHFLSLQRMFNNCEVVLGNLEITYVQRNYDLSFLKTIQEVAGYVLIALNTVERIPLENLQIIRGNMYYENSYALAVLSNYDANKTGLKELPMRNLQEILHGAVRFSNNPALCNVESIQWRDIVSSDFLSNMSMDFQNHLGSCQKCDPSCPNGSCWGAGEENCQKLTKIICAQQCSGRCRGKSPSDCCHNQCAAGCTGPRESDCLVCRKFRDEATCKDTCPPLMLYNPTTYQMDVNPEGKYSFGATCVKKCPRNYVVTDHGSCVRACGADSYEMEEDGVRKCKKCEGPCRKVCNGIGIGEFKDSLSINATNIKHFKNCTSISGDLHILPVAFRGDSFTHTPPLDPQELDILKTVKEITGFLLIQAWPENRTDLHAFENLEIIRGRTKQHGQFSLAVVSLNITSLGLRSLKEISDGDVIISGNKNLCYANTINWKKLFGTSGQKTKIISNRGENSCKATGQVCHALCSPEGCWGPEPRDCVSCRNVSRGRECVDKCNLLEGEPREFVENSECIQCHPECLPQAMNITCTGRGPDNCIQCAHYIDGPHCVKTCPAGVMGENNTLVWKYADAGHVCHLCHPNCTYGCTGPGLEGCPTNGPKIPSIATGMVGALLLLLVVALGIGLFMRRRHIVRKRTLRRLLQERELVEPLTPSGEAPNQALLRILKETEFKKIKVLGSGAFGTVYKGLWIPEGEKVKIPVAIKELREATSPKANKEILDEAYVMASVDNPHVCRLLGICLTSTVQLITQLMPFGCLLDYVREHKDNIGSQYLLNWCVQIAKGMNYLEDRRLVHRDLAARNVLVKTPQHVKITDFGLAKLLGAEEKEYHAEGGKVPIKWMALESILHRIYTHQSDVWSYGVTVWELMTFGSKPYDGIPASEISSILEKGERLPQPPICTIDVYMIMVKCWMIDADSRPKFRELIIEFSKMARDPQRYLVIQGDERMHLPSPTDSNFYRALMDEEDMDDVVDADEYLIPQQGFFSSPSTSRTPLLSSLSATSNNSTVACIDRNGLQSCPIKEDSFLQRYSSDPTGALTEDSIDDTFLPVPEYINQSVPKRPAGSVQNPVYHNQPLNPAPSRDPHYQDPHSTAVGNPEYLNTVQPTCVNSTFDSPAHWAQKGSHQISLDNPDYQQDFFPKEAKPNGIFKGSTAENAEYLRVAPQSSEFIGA

As to `Cn1cnc2c1c(=O)n(CC(=O)Nc1ccc(Cl)cc1)c(=O)n2C` [T-1-PCPA, N-(4-Chlorophenyl)-2-(3,7-dimethyl-2,6-dioxo-2,3,6,7-tetrahydro-1H-purin-1-yl)acetamide], half-maximal inhibition (IC50) was put at 25.4 nM.

By IC50 is commonly meant the midpoint of a concentration-inhibition curve. Lower therefore signals greater potency.
